Holding throughout (type): cell-based
The target of test [1] is T1, adenosine A1 receptor (Homo sapiens, UniProt P30542).
T1 construct: expressed in transfected cells; host or cells: CHO (Chinese Hamster Ovary)
T1 sequence (P30542 1-326): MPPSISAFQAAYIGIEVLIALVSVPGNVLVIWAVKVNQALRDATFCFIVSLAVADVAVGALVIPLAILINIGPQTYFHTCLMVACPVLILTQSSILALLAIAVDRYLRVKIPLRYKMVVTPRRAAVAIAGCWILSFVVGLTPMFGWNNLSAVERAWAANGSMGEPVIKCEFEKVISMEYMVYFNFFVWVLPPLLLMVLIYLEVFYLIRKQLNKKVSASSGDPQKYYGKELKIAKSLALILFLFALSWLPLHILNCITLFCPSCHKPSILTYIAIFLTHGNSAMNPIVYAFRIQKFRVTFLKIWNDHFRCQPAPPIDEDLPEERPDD
Put plainly: Indirect determination of adenosine agonism by way of gene expression (cAMP-dependent luciferase reporter), A1 cells. The conditions noted are these: stably transfected CHO cells; 1 μM forskolin; concentration at which 50% of the luciferase response is inhibited. From the text: (§1) B-1. Indirect determination of the adenosine agonism by way of gene expression Cells of the CHO (Chinese Hamster Ovary) permanent line are transfected stably with the cDNA for the adenosine receptor subtypes A1, A2a and A2b. The adenosine A1 receptors are coupled to the adenylate cyclase by way of Gi proteins, while the adenosine A2a and A2b receptors are coupled by way of Gs proteins. In correspondence with this, the formation of cAMP in the cell is inhibited or stimulated, respectively. After that, expression of the luciferase is modulated by way of a cAMP-dependent promoter. The luciferase test is optimized, with the aim of high sensitivity and reproducibility, low variance and good suitability for implementation on a robot system, by varying several test parameters, such as cell density, duration of the growth phase and the test incubation, forskolin concentration and medium composition. The following test protocol is used for pharmacologically characterizing cells and for the robot-assisted substance screening:
(§2) The stock cultures are grown, at 37° C. and under 5% CO2, in DMEM/F12 medium containing 10% FCS (fetal calf serum) and in each case split 1:10 after 2-3 days. Test cultures are seeded in 384-well plates with 2000 cells per well and grown at 37° C. for approx. 48 hours. The medium is then replaced with a physiological sodium chloride solution (130 mM sodium chloride, 5 mM potassium chloride, 2 mM calcium chloride, 20 mM HEPES, 1 mM magnesium chloride hexahydrate, 5 mM sodium bicarbonate, pH 7.4). The substances to be tested, which are dissolved in DMSO, are pipetted into the test cultures (maximum final concentration of DMSO in the test mixture: 0.5%) in a dilution series of from 5×10^−11M to 3×10^−6M (final concentration). 10 minutes later, forskolin is added to the A1 cells and all the cultures are subsequently incubated at 37° C. for four hours. After that, 35 μl of a solution which is composed of 50% lysis reagent (30 mM disodium hydrogenphosphate, 10% glycerol, 3% TritonX100, 25 mM TrisHCl, 2 mM dithiotreitol (DTT), pH 7.8) and 50% luciferase substrate solution (2.5 mM ATP, 0.5 mM luciferin, 0.1 mM coenzyme A, 10 mM tricine, 1.35 mM magnesium sulfate, 15 mM DTT, pH 7.8) are added to the test cultures, which are shaken for approx. 1 minute and the luciferase activity is measured using a camera system. The EC50 values are determined, i.e., the concentrations at which 50% of the luciferase response is inhibited in the case of the A1 cell, and, respectively, 50% of the maximum stimulation with the corresponding substance is achieved in the case of the A2b and A2a cells. […] Pharmacol., 357, 1-9 (1998)).
(§3) Table 1 below lists the EC50 values of representative working examples for the receptor stimulation on adenosine A1, A2a and A2b receptor subtypes: […]
For orientation: In a reporter assay the amount or activity of a reporter protein is the signal.

Test [2] addresses T2, adenosine A2a receptor (Homo sapiens, UniProt P29274).
T2 construct: expressed in transfected cells; host or cells: CHO (Chinese Hamster Ovary)
Briefly: Indirect determination of adenosine agonism by way of gene expression (cAMP-dependent luciferase reporter), A2a cells. The following applies: stably transfected CHO cells; 50% of the maximum stimulation of luciferase.
Text: as §1, §2, §3

The target of test [3] is T3, adenosine A2b receptor (Homo sapiens, UniProt P29275).
T3 construct: expressed in transfected cells; host or cells: CHO (Chinese Hamster Ovary)
T3 sequence (P29275 1-332): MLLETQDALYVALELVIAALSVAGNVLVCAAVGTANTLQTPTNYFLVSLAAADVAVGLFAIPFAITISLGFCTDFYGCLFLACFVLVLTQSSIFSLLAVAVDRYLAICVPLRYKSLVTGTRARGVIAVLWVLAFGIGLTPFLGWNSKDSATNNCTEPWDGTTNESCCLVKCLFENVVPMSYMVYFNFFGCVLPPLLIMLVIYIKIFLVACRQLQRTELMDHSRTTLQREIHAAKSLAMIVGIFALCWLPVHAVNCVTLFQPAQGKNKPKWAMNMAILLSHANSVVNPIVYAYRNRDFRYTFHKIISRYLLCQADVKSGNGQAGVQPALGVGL
Briefly: Indirect determination of adenosine agonism by way of gene expression (cAMP-dependent luciferase reporter), A2b cells. The following applies: stably transfected CHO cells; 50% of the maximum stimulation of luciferase.
Text: as §1, §2, §3

SMILES strings stand for the structures.

One may read the EC50 as the concentration that produces a half-maximal response. A higher EC50 goes with a need for much substance.

T2 sequence (P29274 whole entry): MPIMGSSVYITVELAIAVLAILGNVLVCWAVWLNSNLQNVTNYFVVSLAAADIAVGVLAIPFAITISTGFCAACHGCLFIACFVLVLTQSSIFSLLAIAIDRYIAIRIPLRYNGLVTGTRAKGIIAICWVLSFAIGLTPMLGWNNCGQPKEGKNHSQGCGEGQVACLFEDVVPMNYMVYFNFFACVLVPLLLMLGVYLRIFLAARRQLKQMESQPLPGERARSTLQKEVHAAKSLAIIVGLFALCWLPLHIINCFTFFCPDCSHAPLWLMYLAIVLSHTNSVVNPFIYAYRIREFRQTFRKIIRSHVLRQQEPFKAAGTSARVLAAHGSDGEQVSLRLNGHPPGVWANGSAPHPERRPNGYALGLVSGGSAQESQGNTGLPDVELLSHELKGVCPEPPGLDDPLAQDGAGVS

For the molecule `COC(=O)c1[nH]c2nc(SCc3csc(-c4ccc(Cl)cc4)n3)c(C#N)c(-c3ccc(OCCO)cc3)c2c1N` [Example 17, Methyl 3-amino-6-({[2-(4-chlorophenyl)-1,3-thiazol-4-yl]methyl}thio)-5-cyano-4-[4-(2-hydroxyethoxy)phenyl]-1H-pyrrolo[2,3-b]pyridine-2-carboxylate], the EC50 in test [1] is 3.7 nM; in test [2], 680 nM; in test [3], above 3000 nM.
Take `COC(=O)c1c(N)c2c(-c3ccc(OC[C@@H](O)CO)cc3)c(C#N)c(SCc3csc(-c4ccc(Cl)cc4)n3)nc2n1C` [Example 12]: the EC50 in test [1] is 11 nM; in test [2], 1600 nM; in test [3], above 3000 nM.
Take `COC(=O)c1c(N)c2c(-c3ccc(OCCO)cc3)c(C#N)c(SCc3cccc(C#N)c3)nc2n1C` [Example 4]: the EC50 in test [1] turned out to be 3 nM; in test [2] it was 73 nM; in test [3] it was 320 nM.
In the same order, the values of `COC(=O)c1c(N)c2c(-c3ccc(OCCO)cc3)c(C#N)c(SCc3ccc(OC)nc3)nc2n1C` [Example 5] are 1.5 nM, 200 nM and 1000 nM.
On to `Cn1c(C(N)=O)c(N)c2c(-c3ccc(OCCO)cc3)c(C#N)c(SCc3csc(-c4ccc(Cl)cc4)n3)nc21` [Example 6], for which the 50% effective concentration (EC50) in test [1] is 0.3 nM; in test [2], 1120 nM; in test [3], above 3000 nM.
`COC(=O)c1c(N)c2c(-c3ccccc3)c(C#N)c(SCc3csc(-c4ccc(Cl)cc4)n3)nc2n1C` [Example 3]: the concentration giving a half-maximal response (EC50) was 5.3 nM in test [1], above 3000 nM in test [2] and above 3000 nM in test [3].
As for `COC(=O)Cn1c(C(=O)OC)c(N)c2c(-c3ccc(OCCO)cc3)c(C#N)c(SCc3csc(-c4ccc(Cl)cc4)n3)nc21` [Example 2], the half-maximal effective concentration (EC50) stood at 1.7 nM in test [1], 150 nM in test [2] and 1540 nM in test [3].
Regarding `CNC(=O)c1c(N)c2c(-c3ccc(OCCO)cc3)c(C#N)c(SCc3csc(-c4ccc(Cl)cc4)n3)nc2n1C` [Example 7], the figures for the EC50 in test [1], in test [2] and in test [3] were 5 nM, 350 nM and 660 nM, respectively.
Consider `COC(=O)c1c(N)c2c(-c3ccc(OCCO)cc3)c(C#N)c(SCc3cccc(C(N)=O)c3)nc2n1C` [Example 15, Methyl 3-amino-6-[(3-carbamoylbenzyl)thio]-5-cyano-4-[4-(2-hydroxyethoxy)phenyl]-1-methyl-1H-pyrrolo[2,3-b]pyridine-2-carboxylate], for which the results for the concentration giving a half-maximal response (EC50) in test [1], in test [2] and in test [3] were 3.7 nM, 440 nM and 1330 nM, respectively.
Take `N#Cc1c(SCc2csc(-c3ccc(Cl)cc3)n2)nc2[nH]nc(N)c2c1-c1ccc(OCCO)cc1` [Example 21, 3-Amino-6-({[2-(4-chlorophenyl)-1,3-thiazol-4-yl]methyl}sulfanyl)-4-[4-(2-hydroxyethoxy)phenyl]-1H-pyrazolo[3,4-b]pyridine-5-carbonitrile]: the values for the concentration for a half-maximal effect (EC50) in test [1], in test [2] and in test [3] were 10 nM, above 3000 nM and above 3000 nM, respectively.
Turning to `Cn1c(C(N)=O)c(N)c2c(-c3ccc(OCCO)cc3)c(C#N)c(SCc3cccc(C(N)=O)c3)nc21` [Example 16, 3-Amino-6-[(3-carbamoylbenzyl)thio]-5-cyano-4-[4-(2-hydroxyethoxy)phenyl]-1-methyl-1H-pyrrolo[2,3-b]pyridine-2-carboxamide], the concentration for a half-maximal effect (EC50) came out at 4.9 nM in test [1], 330 nM in test [2] and 760 nM in test [3].
`COC(=O)c1c(N)c2c(-c3ccc(OC[C@@H](O)CO)cc3)c(C#N)c(SCc3coc(-c4ccc(Cl)cc4)n3)nc2n1C` [Example 11]: the EC50 is 14 nM in test [1], 600 nM in test [2] and above 3000 nM in test [3].
In the same order, the values of `COC(=O)c1c(N)c2c(-c3ccc(OCCO)cc3)c(C#N)c(SCc3csc(-c4ccc(Cl)cc4)n3)nc2n1C` [Example 1, Methyl 3-amino-6-({[2-(4-chlorophenyl)-1,3-thiazol-4-yl]methyl}thio)-5-cyano-4-[4-(2-hydroxyethoxy)phenyl]-1-methyl-1H-pyrrolo[2,3-b]pyridine-2-carboxylate] are 0.8 nM, 170 nM and 550 nM.

These data come from US8609686B2, “Substituted azabicyclic compounds and the use thereof” (Bayer Intellectual Property GmbH, priority 2007, dated 2013).
